From US12636283B2, “Inhibition of PRC2 subunits to treat eye disorders” (FONDATION ASILE DES AVEUGLES, priority 2018, dated 2026)
“Also recorded” adds a separate entry of the source.

Experiments:
EZH2 = biological target: T1, EZH2 (Mus musculus, UniProt Q61188); experiment: UNC1999 treatment of mouse embryonic fibroblasts, H3K27me3 immunostaining and western blot; type: cell-based
T1 construct: endogenous in cells; host or cells: Mouse Embryonic Fibroblasts (MEF)
Procedure: Mouse Embryonic Fibroblasts (MEF) were maintained in culture in Dulbecco's Modified Eagle's Media (DMEM), 10% fetal bovine serum (FBS) with penicillin and streptomycin, at 37° C., 5% CO2. The day before treatment, the cells were trypsinized and seeded at a density of 50,000 cells on poly-ornithine coated coverslips in 24 well plates. The next day, the media was discarded and fresh media containing various doses of the UNC1999 inhibitor dissolved in dimethyl sulfoxide (DMSO), ranging from 1 μM to 50 μM was added in triplicates, then incubated back at 37° C. for 48H. Control cells received the respective dimethyl sulfoxide DMSO used with the UNC1999. The coverslips were washed 3 times with pre-warmed phosphate buffer saline (PBS) 1× at room temperature (RT). The cells were fixed with 4% paraformaldehyde (PFA) for 12 min at RT. After two more washes in PBS, the cells were immediately proceeded for immunostaining. For western blot analysis, 200,000 cells were seeded in triplicates in 6 wells plates and treated as above.
Immunohistochemistry was performed on treated and non-treated slides. The sections were washed 3 times with cooled PBS 1× before being permeabilized with Triton X-100 for 20 min to further allow optimal antibodies-antigens interactions everywhere in the tissue and cells. The sections were blocked for 1 h with buffer containing 3% BSA (w/v), 5% NGS (v/v) in PBS 1× containing 0.3% Triton X-100. Appropriate antibodies dilutions (see list of antibodies with their respective applications in Table 2) were prepared in blocking solution and sufficient amount were laid and transferred to 4° C. over-night. The next day, the antibodies solutions were shed-off and the remaining non-interacting probes were washed off 3 times with PBS 1×. Interacting probes were then detected by applying a solution of appropriate conjugated secondary antibodies Alexa Fluor 488 or Alexa fluor 633 diluted in PBS 1× 1 h at RT. Finally, the nuclei were counterstained with 4′,6-diamidino-2-phenylindole (DAPI) solution prepared in PBS. Alternatively, for difficult to retrieve antigens such as cGMP and CDK4, special conditions were applied: Successful detection of CDK4 requires signal amplification, either with TSA* fluorescein detection kit (PerkinElmer) or 3,3′-diaminobenzidine (DAB) revelation system (Dako) according to providers instructions. The cGMP detection was achieved by permeabilizing the membrane with soft detergent solution (0.1% Triton X-100) and using Tris buffer (TBS) throughout the incubation steps. All the preparations were mounted with Mowiol and measurements were taken using an Olympus BX60 fluorescence microscope or Zeiss confocal microscopy (LSM 510 3.2 software). […]

Rd1 mice = experiment: Intravitreal injection of UNC1999 in PN8 Rd1 mice, H3K27me3 and TUNEL staining of the ONL; type: in vivo, mouse
Procedure: The UNC1999 inhibitor was supplied as lyophilized powder from commercial source (#SML0778-5MG, SIGMA). The stock solution was prepared in 100% DMSO according to the manufacturer's instructions. Sufficient amount of DMSO was added to the vial to generate a 10 mM stock solution. For optimal injection procedure, we reviewed three different parameters prior to intermediate solution preparation. Firstly, considering the volume of the vitreous of young mice (post-natal day 8, PN08) which is approximately 5.3 μl; the maximum safe amount (1 μl) that could be injected (final volume 6.3 μl) and the calculated effective dose of […] obtained from increasing doses along with cell culture experiments (see below). Therefore, the stock solution was then diluted in physiological buffer (0.9% NaCl) in order to make a 20 μM intermediate solution for subsequent experiments.
(§1) The compound was delivered by intravitreal injection into the eyeball of PN08 Rd1 littermates. The animals (08 in total) were first anesthetized intraperitoneally (ip) with a mixture of 20 mg/kg Ketamine+300 μg/Kg of Dorbene. After 30 min, the recovery was performed by an ip injection of 300 μg/kg of Alzane. When necessary, the future edge of the eyelid was forced to open and maintained with forceps. The injection needle filled with 20 μM UNC1999 solution was inserted carefully into the vitreous through the sclera. A single dose (1 μl) of the intermediate solution was delivered slowly, leading to a final concentration of 2.5-3 μM, with a corresponding DMSO concentration of 0.0317%. For each animal, one eye received the compound whereas the other eye was injected with the vehicle. The injected animals were kept warmed and benefited from closest inspection until they wake up from anesthesia. 400 μl of 5% glucose and paracetamol were administered subcutaneously and intraperitoneally respectively to help for recovery before transferred back to their normal habits. The mice were sacrificed 4 days post injection and the eyeball excised as described below. Before processing, the eyes were carefully inspected for any sign of cataracts and unexpected lesions. Similarly, a single dose of UNC1999 (solution of 36 μM) was administered by intravitreal injection to 2 months old Fam161a^−/− mice (slow degenerative process), with repeated injection every week. The animal was sacrificed 4 days after the fourth injection.
The animals were sacrificed by a 7 min exposure to CO2. The Histology was performed on enucleated eyes. Prior to cryosectioning, the eye globes were excised from the optic nerve and were perforated at the cornea level (a single tiny hole) with 25 G needle and transfer to 4% PFA (w/v) at RT. After 1 h incubation period, the eyes were washed in PBS 1× before being transferred in 30% sucrose over night at 4° C. The eyes were embedded in yazula and frozen at −20° C. and then 14 μm sections were performed with cryostat. The sections were collected on six serial slides for each eye. All quantifications were performed on the most central cryosections including (or surrounding) the optic nerve. Measurements of rows of nuclei were taken at the same geographic area for both dorsal and ventral sides of the retina in all sections and slides analyzed. The data were pooled as a mean for the dorsal or ventral zone of the retina
The frozen slides were warmed at RT, rehydrated and washed 3 times with PBS 1×. […]

Fam161a-/- mice = experiment: Repeated weekly intravitreal injection of UNC1999 in Fam161a-/- mice, photoreceptor rows and H3K27me3; type: in vivo, mouse; details: 2-month-old Fam161a-/- mice
Procedure: as §1
The animals were sacrificed by a 7 min exposure to CO2. […] All quantifications were performed on the most central cryosections including (or surrounding) the optic nerve. Measurements of rows of nuclei were taken at the same geographic area for both dorsal and ventral sides of the retina in all sections and slides analyzed. […]
Immunohistochemistry was performed on treated and non-treated slides. […] Interacting probes were then detected by applying a solution of appropriate conjugated secondary antibodies Alexa Fluor 488 or Alexa fluor 633 diluted in PBS 1× 1 h at RT. […]

C57/B16 healthy mice = experiment: ERG recording of retina function in healthy mice before and one week after intravitreal injection; type: in vivo, mouse
Procedure: To test whether the UNC1999 dose tested ([…]) has a toxic effect on retina function, the retina activity of control (injected with the vehicle, DMSO) and UNC1999 treated C57/B16 healthy mice was recorded by ERG before and one week after intravitreal injection (FIG. 12). In scotopic condition, the b-wave maximum amplitude baseline of the DMSO treated group was a bit higher than the UNC1999 group one before the injection.

[1] = mouse embryonic fibroblasts, FIG. 7B
[2] = Rd1 PN8, intravitreal, 2.5 μM final eye concentration, 4 days post injection, vs DMSO treated eye
[3] = Rd1 eyes injected at PN8, 2.5 μM final eye concentration, vs vehicle (DMSO)
[4] = intravitreal, weekly, four injections, solution of 36 μM

T1 sequence (Q61188 whole entry): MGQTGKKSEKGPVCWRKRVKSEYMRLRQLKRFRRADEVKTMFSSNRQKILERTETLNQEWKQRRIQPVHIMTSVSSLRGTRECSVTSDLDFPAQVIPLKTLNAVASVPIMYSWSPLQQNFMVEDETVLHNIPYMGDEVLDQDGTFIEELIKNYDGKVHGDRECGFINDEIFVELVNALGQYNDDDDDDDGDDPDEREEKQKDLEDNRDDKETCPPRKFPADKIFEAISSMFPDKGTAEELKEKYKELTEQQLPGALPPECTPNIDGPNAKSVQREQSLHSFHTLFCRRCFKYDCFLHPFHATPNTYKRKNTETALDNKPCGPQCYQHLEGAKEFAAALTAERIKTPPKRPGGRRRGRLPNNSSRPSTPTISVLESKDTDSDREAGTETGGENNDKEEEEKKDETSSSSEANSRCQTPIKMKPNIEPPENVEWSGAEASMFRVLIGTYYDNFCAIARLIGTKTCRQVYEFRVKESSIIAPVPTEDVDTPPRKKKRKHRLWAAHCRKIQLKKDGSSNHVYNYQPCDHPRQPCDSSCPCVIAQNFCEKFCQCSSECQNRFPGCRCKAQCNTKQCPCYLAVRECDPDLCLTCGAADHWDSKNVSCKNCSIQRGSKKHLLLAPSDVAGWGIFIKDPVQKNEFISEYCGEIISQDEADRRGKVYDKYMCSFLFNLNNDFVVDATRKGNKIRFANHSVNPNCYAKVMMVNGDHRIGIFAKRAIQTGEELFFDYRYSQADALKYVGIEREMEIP
T1 sequence (Q921E6 whole entry partner): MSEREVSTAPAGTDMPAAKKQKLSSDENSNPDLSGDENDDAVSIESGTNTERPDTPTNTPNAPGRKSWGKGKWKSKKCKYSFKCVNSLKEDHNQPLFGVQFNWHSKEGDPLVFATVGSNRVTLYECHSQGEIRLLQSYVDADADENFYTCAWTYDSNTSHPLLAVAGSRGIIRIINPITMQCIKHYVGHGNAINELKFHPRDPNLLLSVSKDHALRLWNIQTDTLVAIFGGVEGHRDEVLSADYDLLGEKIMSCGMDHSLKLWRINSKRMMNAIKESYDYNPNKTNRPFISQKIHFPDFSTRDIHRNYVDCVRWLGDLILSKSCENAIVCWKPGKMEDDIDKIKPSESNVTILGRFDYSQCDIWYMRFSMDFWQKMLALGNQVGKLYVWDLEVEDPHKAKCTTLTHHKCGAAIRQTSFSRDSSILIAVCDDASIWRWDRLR
T1 sequence (Q80U70 whole entry partner): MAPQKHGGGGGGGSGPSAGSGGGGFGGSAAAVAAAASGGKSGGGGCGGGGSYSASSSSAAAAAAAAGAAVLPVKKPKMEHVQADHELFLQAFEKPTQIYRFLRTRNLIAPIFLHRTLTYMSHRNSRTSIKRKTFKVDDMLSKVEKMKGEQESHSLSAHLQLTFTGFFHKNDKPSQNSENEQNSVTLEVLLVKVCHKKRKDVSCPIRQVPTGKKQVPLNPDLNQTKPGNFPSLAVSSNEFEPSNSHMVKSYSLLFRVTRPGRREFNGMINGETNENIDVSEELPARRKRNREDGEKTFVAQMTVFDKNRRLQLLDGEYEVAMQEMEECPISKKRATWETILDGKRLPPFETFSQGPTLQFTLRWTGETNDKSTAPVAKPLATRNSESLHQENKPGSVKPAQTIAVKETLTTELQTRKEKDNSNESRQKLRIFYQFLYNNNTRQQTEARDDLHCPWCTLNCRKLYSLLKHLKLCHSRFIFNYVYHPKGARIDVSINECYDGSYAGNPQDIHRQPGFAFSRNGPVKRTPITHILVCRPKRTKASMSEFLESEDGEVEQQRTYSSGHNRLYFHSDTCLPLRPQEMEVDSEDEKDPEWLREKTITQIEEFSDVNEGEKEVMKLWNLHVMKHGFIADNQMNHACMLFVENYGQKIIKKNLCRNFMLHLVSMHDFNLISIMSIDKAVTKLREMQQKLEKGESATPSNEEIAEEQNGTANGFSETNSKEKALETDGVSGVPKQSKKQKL
T1 sequence (Q60972 whole entry partner): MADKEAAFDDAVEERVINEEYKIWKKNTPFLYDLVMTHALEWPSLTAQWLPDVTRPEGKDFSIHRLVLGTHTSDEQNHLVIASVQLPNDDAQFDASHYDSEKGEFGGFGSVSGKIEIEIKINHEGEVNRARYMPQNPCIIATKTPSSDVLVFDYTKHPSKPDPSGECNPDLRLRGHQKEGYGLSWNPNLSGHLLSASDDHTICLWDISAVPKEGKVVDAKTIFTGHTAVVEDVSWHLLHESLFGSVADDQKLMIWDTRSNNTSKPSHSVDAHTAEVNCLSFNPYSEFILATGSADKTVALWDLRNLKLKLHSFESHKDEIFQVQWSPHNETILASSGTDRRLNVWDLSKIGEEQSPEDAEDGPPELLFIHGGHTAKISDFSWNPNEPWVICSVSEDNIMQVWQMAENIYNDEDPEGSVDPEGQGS

CCCc1cc(C)[nH]c(=O)c1CNC(=O)c1cc(-c2ccc(N3CCN(C(C)C)CC3)nc2)cc2c1cnn2C(C)C [UNC1999]
H3K27me3 mark by immunocytochemistry labelling (EZH2; [1]): robust decreased of the mark | levels of EZH2 (EZH2; [1]): slightly affected | calculated effective dose (EZH2; obtained from increasing doses along with cell culture experiments): 6 µM | block of endogenous levels of H3K27me3 (EZH2; proliferating mouse embryonic fibroblasts, 2.5 μM, compared to DMSO control): efficient to block the endogenous levels of H3K27me3 | decline of hyper H3K27me3 signal in the ONL (Rd1 mice; [2]): 75% | decrease of number of TUNEL positive cells (Rd1 mice; [2]): 70% | H3K27me3 positive cells (in words) (Rd1 mice; [3]): marked reduction | TUNEL positive cells (in words) (Rd1 mice; [3]): marked reduction | retinal degeneration (Rd1 mice; Rd1 mouse): markedly delayed retinal degeneration | levels of H3K27me3 hyper trimethylation, injected vs non-injected side (Fam161a-/- mice; dorso-ventral axis, 4 days after the last injection): did not observe any statistical differences; also recorded: no changes were observed | number of photoreceptor rows in the dorsal compartment (Fam161a-/- mice; [4]): No significant difference | number of photoreceptor rows in the ventral ONL (Fam161a-/- mice; [4]): statistical significant preservation | ERG photopic response vs baseline (C57/B16 healthy mice; 3 cda/s.m^2 stimulation, one week after injection, both DMSO and UNC1999 treated animals): reduced response | ERG photopic flicker response, treated vs control group (C57/B16 healthy mice; 5, 10 and 15 Hz, one week after intravitreal injection): No differences between the control and the treated groups were observed | ERG flicker response vs baseline (C57/B16 healthy mice; 5 Hz, both treated groups (DMSO and UNC1999)): a reduction of the response occurred | ERG flicker response (C57/B16 healthy mice; 15 Hz, all groups): no differences were observed | ERG photopic maximum b-wave amplitude, treated vs vehicle group (C57/B16 healthy mice; healthy adult mice, one week after intravitreal injection): No differences between the two groups were noticed | ERG scotopic maximum b-wave amplitude (C57/B16 healthy mice; healthy adult mice, one week after intravitreal injection, vs DMSO group and baseline): no significant differences with the baseline; also recorded: No differences in retina activity
